Values quoted from earlier work, collected in patent US20210251944A1, “METHODS FOR TREATING A CANCER RESISTANT TO AT LEAST ONE TYROSINE KINASE INHIBITOR” (Del Mar Pharmaceuticals (BC) Ltd., priority 2012, published 2021).
Where two headings read alike, the source gives them in different places.

Columns and labels:
[1] = cited from earlier work
[2] = target: glycogen synthase kinase-3β (GSK-3β) (Homo sapiens, UniProt P49841); conditions: cited from earlier work
CML = conditions: cited from earlier work; for rate of incomplete cytogenetic responses to imatinib: CML

Chain of glycogen synthase kinase-3β (GSK-3β) (P49841 whole entry, species assumed): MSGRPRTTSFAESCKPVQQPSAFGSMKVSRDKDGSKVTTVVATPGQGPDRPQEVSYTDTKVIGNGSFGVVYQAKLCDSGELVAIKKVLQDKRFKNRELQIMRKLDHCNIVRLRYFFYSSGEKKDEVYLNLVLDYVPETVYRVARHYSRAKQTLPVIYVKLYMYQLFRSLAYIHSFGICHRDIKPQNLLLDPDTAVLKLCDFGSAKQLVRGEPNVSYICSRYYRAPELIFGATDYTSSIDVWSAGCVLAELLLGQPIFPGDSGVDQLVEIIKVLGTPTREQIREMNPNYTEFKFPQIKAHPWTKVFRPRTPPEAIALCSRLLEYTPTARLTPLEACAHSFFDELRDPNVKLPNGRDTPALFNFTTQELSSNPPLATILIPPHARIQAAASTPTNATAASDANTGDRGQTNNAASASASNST

## O[C@H]([C@H](O)[C@@H](O)CBr)[C@H](O)CBr [Dibromodulcitol, dibromodulcitol]
[1]
  absorption by the oral route: rapid and fairly complete

## CN1C(=O)/C(=C2/C(=O)Nc3ccccc32)c2ccccc21 [Meisoindigo, meisoindigo]
[2]
  concentration for inhibition of glycogen synthase kinase-3β (GSK-3β): 5 to 50 nM

## Cc1ccc(NC(=O)c2ccc(CN3CCN(C)CC3)cc2)cc1Nc1nccc(-c2cccnc2)n1 [imatinib]
CML; individuals in East Asia
  rate of incomplete cytogenetic responses to imatinib: ~50%
CML; individuals in Europe and North America
  rate of incomplete cytogenetic responses to imatinib: 26%
CML; chronic phase CML, first-line imatinib 400 mg/day, ELN criteria
  overall odds ratio for resistant disease, patients with the BIM deletion polymorphism compared to those without: 2.94
